Source: patent publication US20230293517A1, “ANTAGONIST COMPOUNDS” (AdoRx Therapeutics Limited, priority 2020, published 2023)
Where a name gives a salt, the structure may show the parent alone. Read-outs that look alike come from different tables or passages of the source.

How the values were obtained:
[1] = target: human Adenosine A2b receptor (Homo sapiens (Human), UniProt P29275); assay: Adenosine receptor TR-FRET binding assay (A2b)
Procedure: (§1) Biological Example 1—Adenosine Receptor Time-Resolved Fluorescence Resonance Energy Transfer (TRFRET) Binding Assay
(§2) All FRET binding experiments were conducted at room temperature in white 384-well plates, in assay binding buffer containing 1×LabMed (Cisbio, France), 100 μg/mL saponin, 1% DMSO and 0.02% pluronic acid. Binding of the fluorescently labelled Adenosine receptor antagonist XAC (CA200645, FRET acceptor) to terbium-labelled A1, A2a, A2b and A3 adenosine receptors (FRET donors) was detected by time-resolved FRET due to the close proximity of the donor and acceptor in a binding event. To investigate the ability of unlabelled test compounds to bind to Adenosine A1, A2a, A2b and A3 receptors, dose response curves were constructed that determined the ability of a range of concentrations to inhibit the binding of 30 nM CA200645 to the A2b receptor and 100 nM CA200645 to the A1, A2a, and A3 receptor.
(§3) Serial dilution (1:3 dilutions) of test compounds in neat DMSO and transfer of a 400 nL sample of test compound into the assay plate was carried out using the Mosquito (TTP Labtech, UK). The compound samples were incubated for 2 hours at room temperature with a fixed concentration of CA200645 defined for each receptor (see above) and CHO cell membranes containing the human Adenosine A1 (0.5 μg/well), A2a (0.3 μg/well), A2b (1 μg/well) or A3 (1 μg/well) receptor in 40 μL of assay buffer. Total and non-specific binding of CA200645 was determined in the absence and presence of 10 μM XAC, respectively. Following 2 hours incubation, the level of CA200645 binding was detected on a Pherastar FSX (BMG Labtech, Germany) using standard TR-FRET settings. The terbium donor was excited with three laser flashes at a wavelength of 337 nm, and donor and acceptor emission was detected at 620 nm and 665 nm wavelengths, respectively. FRET ratios were obtained by multiplying the acceptor/donor ratio value by 10,000. Specific binding was determined by subtracting the non-specific binding FRET ratio from the total binding FRET ratio. Compound IC50 curves were analysed using GraphPad Prism 7.0 (GraphPad, USA) and Ki affinity values were determined from the obtained IC50 values using the method of Cheng and Prusoff.

[2] = target: human Adenosine A1 receptor (Homo sapiens (Human), UniProt P30542); assay: Adenosine receptor TR-FRET binding assay (A1); details: inhibition of binding of 100 nM CA200645, CHO cell membranes
Sequence of human Adenosine A1 receptor (P30542 whole entry): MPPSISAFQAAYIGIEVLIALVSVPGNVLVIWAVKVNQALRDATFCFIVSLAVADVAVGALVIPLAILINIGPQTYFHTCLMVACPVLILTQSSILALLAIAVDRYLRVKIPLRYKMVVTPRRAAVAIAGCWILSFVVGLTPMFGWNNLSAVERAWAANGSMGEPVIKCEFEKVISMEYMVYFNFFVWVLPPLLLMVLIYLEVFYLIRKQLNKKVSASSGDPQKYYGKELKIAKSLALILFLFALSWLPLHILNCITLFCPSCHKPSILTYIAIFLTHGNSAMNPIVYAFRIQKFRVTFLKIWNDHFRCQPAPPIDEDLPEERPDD
Procedure: as §1, §2, §3

[3] = target: human Adenosine A3 receptor (Homo sapiens (Human), UniProt P0DMS8); assay: Adenosine receptor TR-FRET binding assay (A3); details: inhibition of binding of 100 nM CA200645, CHO cell membranes
Sequence of human Adenosine A3 receptor (P0DMS8 whole entry): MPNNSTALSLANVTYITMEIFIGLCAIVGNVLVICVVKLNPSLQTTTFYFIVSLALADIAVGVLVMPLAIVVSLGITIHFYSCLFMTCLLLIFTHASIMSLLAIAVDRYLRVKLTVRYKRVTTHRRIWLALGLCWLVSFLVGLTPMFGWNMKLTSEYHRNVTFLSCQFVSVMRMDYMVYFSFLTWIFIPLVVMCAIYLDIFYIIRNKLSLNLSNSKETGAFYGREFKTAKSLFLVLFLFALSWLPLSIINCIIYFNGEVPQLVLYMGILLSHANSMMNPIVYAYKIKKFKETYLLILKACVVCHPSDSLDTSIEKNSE
Procedure: as §1, §2, §3

[4] = target: human Adenosine A2a receptor (Homo sapiens (Human), UniProt P29274); assay: Adenosine receptor TR-FRET binding assay (A2a); details: inhibition of binding of 100 nM CA200645, CHO cell membranes
Sequence of human Adenosine A2a receptor (P29274 whole entry): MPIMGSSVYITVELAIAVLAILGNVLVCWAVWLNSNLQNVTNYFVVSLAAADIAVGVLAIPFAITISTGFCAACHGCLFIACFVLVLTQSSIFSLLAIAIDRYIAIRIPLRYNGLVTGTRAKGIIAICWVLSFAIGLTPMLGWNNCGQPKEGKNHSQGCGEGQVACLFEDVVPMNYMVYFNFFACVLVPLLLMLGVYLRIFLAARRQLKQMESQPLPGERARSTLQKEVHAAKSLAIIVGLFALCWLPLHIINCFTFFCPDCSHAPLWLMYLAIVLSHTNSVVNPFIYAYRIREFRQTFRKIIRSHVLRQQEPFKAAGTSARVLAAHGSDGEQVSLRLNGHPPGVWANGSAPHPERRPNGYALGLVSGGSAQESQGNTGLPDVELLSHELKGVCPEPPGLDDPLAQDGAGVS
Procedure: as §1, §2, §3

[5] = TR-FRET, inhibition of binding of 30 nM CA200645, CHO cell membranes

Sequence of human Adenosine A2b receptor (P29275 whole entry): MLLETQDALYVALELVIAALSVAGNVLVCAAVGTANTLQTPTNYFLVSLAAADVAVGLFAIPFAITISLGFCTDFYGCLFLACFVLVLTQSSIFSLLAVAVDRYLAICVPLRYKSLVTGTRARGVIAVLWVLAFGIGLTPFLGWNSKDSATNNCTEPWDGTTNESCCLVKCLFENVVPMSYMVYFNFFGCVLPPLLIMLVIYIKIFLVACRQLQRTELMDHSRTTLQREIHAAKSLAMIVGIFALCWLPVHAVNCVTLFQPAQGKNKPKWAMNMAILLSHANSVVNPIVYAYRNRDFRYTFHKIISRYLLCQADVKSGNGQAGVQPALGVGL

Compound | Ki [1] [µM] | Ki [2] [µM] | Ki [3] [µM] | Ki [4] [µM] | Ki [1, 5] [µM]
Cc1cc(-c2sc(NC(=O)N3C[C@H]4OCCN(C)[C@H]4C3)nc2-c2cccc(C#N)c2)cc(C(F)F)n1 (racemic) [Example 6.106, rac-(4aS,7aR)-N-[4-(3-Cyanophenyl)-5-[2-(difluoromethyl)-6-methyl-4-pyridyl]thiazol-2-yl]-4-methyl-2,3,4a,5,7,7a-hexahydropyrrolo[3,4-b][1,4]oxazine-6-carboxamide] | 0.0045 | 0.139 | 0.195 | 0.00107 | 
Cc1cc(-c2sc(NC(=O)N3C[C@@H]4OCCN(C)[C@H]4C3)nc2-c2cccc(C#N)c2)cc(C(F)F)n1 (racemic) [Example 6.109, rac-(4aS,7aS)-N-[4-(3-Cyanophenyl)-5-[2-(difluoromethyl)-6-methyl-4-pyridyl]thiazol-2-yl]-4-methyl-2,3,4a,5,7,7a-hexahydropyrrolo[3,4-b][1,4]oxazine-6-carboxamide] | 0.0455 | 0.471 | 0.298 | 0.0108 | 
Cc1cc(-c2sc(NC(=O)N3C[C@@H]4NCCO[C@H]4C3)nc2-c2cccc(C#N)c2)cc(C(F)F)n1 (racemic) [Example 14.1, rac-(4aS,7aS)—N-[4-(3-Cyanophenyl)-5-[2-(difluoromethyl)-6-methyl-4-pyridyl]thiazol-2-yl]-3,4,4a,5,7,7a-hexahydro-2H-pyrrolo[3,4-b][1,4]oxazine-6-carboxamide 2,2,2-trifluoroacetic acid salt] | 0.0086 | 0.041 | 0.112 | 0.00267 | 
Cc1cc(-c2sc(NC(=O)N3C[C@@H]4NCCO[C@@H]4C3)nc2-c2cccc(C#N)c2)cc(C(F)F)n1 (racemic) [Example 14.2, rac-(4aS,7aR)—N-[4-(3-Cyanophenyl)-5-[2-(difluoromethyl)-6-methyl-4-pyridyl]thiazol-2-yl]-3,4,4a,5,7,7a-hexahydro-2H-pyrrolo[3,4-b][1,4]oxazine-6-carboxamide 2,2,2-trifluoroacetic acid salt] | 0.0083 | 0.183 | 0.132 | 0.00209 | 
Cc1cc(-c2sc(NC(=O)N3CCOCC3)nc2-c2cccc(C#N)c2)cc(Cl)n1 [Example 1, N-[5-(2-Chloro-6-methyl-4-pyridyl)-4-(3-cyanophenyl)thiazol-2-yl]morpholine-4-carboxamide] |  | 0.009 | 0.305 | 0.00042 | 0.0011
Cc1cc(-c2sc(NC(=O)N3CCC[C@@H]3C(C)(C)O)nc2-c2cccc(C#N)c2)cc(Cl)n1 [Example 3, (2R)—N-[5-(2-Chloro-6-methyl-4-pyridyl)-4-(3-cyanophenyl)thiazol-2-yl]-2-(1-hydroxy-1-methyl-ethyl)pyrrolidine-1-carboxamide] |  | 1 | 1.98 | 0.0582 | 0.0506
Cc1cc(-c2sc(NC(=O)N3CCCC3)nc2-c2cccc(C#N)c2)cc(Cl)n1 [Example 3.2] |  | 0.012 | 1.04 | 0.0004 | 0.0007
Cc1cc(-c2sc(NC(=O)N3CCOCC3C(C)(C)O)nc2-c2cccc(C#N)c2)cc(Cl)n1 (centres unmarked) [Example 3.4] |  |  | 2.05 | 0.0143 | 0.0143
Cc1cc(-c2sc(NC(=O)N3CCN[C@H](C(=O)O)C3)nc2-c2cccc(C#N)c2)cc(Cl)n1 [Example 3.5] |  | 0.434 | 0.928 | 0.0116 | 0.0114
Cc1cc(-c2sc(NC(=O)N3C[C@H](C)NC[C@@H]3C)nc2-c2cccc(C#N)c2)cc(C)n1 [Example 7.7, (2S,5S)—N-[4-(3-Cyanophenyl)-5-(2,6-dimethyl-4-pyridyl)thiazol-2-yl]-2,5-dimethyl-piperazine-1-carboxamide] |  | 0.049 |  | 0.00527 | 0.0182
Cc1cc(-c2sc(NC(=O)N3[C@H](C)CNC[C@H]3C)nc2-c2cccc(C#N)c2)cc(C)n1 [Example 7.8, (2R,6R)—N-[4-(3-Cyanophenyl)-5-(2,6-dimethyl-4-pyridyl)thiazol-2-yl]-2,6-dimethyl-piperazine-1-carboxamide] |  | 0.194 |  | 0.00673 | 0.0602
Cc1cc(-c2sc(NC(=O)N3CCNCC3(C)C)nc2-c2cccc(C#N)c2)cc(C)n1 [Example 7.9, N-[4-(3-Cyanophenyl)-5-(2,6-dimethyl-4-pyridyl)thiazol-2-yl]-2,2-dimethyl-piperazine-1-carboxamide] |  | 0.061 |  | 0.0103 | 0.0442
Cc1cc(-c2sc(NC(=O)N3CCNCC34CCC4)nc2-c2cccc(C#N)c2)cc(C)n1 [Example 7.10, N-[4-(3-Cyanophenyl)-5-(2,6-dimethyl-4-pyridyl)thiazol-2-yl]-5,8-diazaspiro[3.5]nonane-5-carboxamide] |  | 0.122 |  | 0.0294 | 0.09
Cc1cc(-c2sc(NC(=O)N3C[C@@H](C)N[C@@H](C)C3)nc2-c2cccc(C#N)c2)cc(C)n1 [Example 13, (3S,5R)—N-[4-(3-Cyanophenyl)-5-(2,6-dimethyl-4-pyridyl)thiazol-2-yl]-3,5-dimethyl-piperazine-1-carboxamide] |  | 0.373 |  | 0.0243 | 0.196
Cc1cc(-c2sc(NC(=O)N3CC4(CNCCO4)C3)nc2-c2cccc(C#N)c2)cc(C)n1 [Example 13.1, N-[4-(3-Cyanophenyl)-5-(2,6-dimethyl-4-pyridyl)thiazol-2-yl]-5-oxa-2,8-diazaspiro[3.5]nonane-2-carboxamide] |  | 0.164 |  | 0.00064 | 0.0019
Cc1cc(-c2sc(NC(=O)N3CCNC4(CC4)C3)nc2-c2cccc(C#N)c2)cc(C)n1 [Example 13.2, N-[4-(3-Cyanophenyl)-5-(2,6-dimethyl-4-pyridyl)thiazol-2-yl]-4,7-diazaspiro[2.5]octane-7-carboxamide] |  | 0.027 |  | 0.0019 | 0.0044
Cc1cc(-c2sc(NC(=O)N3C[C@H](C)N[C@@H](C)C3)nc2-c2cccc(C#N)c2)cc(C)n1 [Example 13.3, (3S,5S)-N-[4-(3-Cyanophenyl)-5-(2,6-dimethyl-4-pyridyl)thiazol-2-yl]-3,5-dimethyl-piperazine-1-carboxamide] |  | 0.322 |  | 0.0114 | 0.077
Cc1cc(-c2sc(NC(=O)N3CCN[C@H](C#N)C3)nc2-c2cccc(C#N)c2)cc(C)n1 [Example 13.14, (3S)-3-Cyano-N-[4-(3-cyanophenyl)-5-(2,6-dimethyl-4-pyridyl)thiazol-2-yl]piperazine-1-carboxamide] |  | 0.013 |  | 0.00018 | 0.0042
Cc1cc(-c2sc(NC(=O)N3CCN[C@@H](C#N)C3)nc2-c2cccc(C#N)c2)cc(C)n1 [Example 13.15, (3R)-3-Cyano-N-[4-(3-cyanophenyl)-5-(2,6-dimethyl-4-pyridyl)thiazol-2-yl]piperazine-1-carboxamide] |  | 0.041 |  | 0.00033 | 0.0051
Cc1cc(-c2sc(NC(=O)N3CCNCC3C3CC3)nc2-c2cccc(C#N)c2)cc(C)n1 (centres unmarked) [Example 14.4, N-[4-(3-Cyanophenyl)-5-(2,6-dimethyl-4-pyridyl)thiazol-2-yl]-2-cyclopropyl-piperazine-1-carboxamide] |  | 0.058 |  | 0.00579 | 0.0371
Cc1cc(-c2sc(NC(=O)N3CCNCC3CC3CC3)nc2-c2cccc(C#N)c2)cc(C)n1 (centres unmarked) [Example 14.5, N-[4-(3-Cyanophenyl)-5-(2,6-dimethyl-4-pyridyl)thiazol-2-yl]-2-(cyclopropylmethyl)piperazine-1-carboxamide] |  | 0.061 |  | 0.00043 | 0.0025
Cc1cc(-c2sc(NC(=O)N3CCNC(C)(C)C3)nc2-c2cccc(C#N)c2)cc(C)n1 [Example 14.6, N-[4-(3-Cyanophenyl)-5-(2,6-dimethyl-4-pyridyl)thiazol-2-yl]-3,3-dimethyl-piperazine-1-carboxamide] |  | 0.185 |  | 0.0156 | 0.033
Cc1cc(-c2sc(NC(=O)N3CC4(COC4)C3)nc2-c2cccc(C#N)c2)cc(C)[n+]1[O-] [Example 17, N-[4-(3-Cyanophenyl)-5-(2,6-dimethyl-1-oxido-pyridin-1-ium-4-yl)thiazol-2-yl]-2-oxa-6-azaspiro[3.3]heptane-6-carboxamide] |  | 0.012 |  | 0.00129 | 0.01
